Test results taken from paper PMC9775322, “An Integrated Analysis of Mechanistic Insights into Biomolecular Interactions and Molecular Dynamics of Bio-Inspired Cu(II) and Zn(II) Complexes towards DNA/BSA/SARS-CoV-2 3CL^pro by Molecular Docking-Based Virtual Screening and FRET Detection” (Biomolecules, 2022).

How the values were obtained:
[1] = system: Chromo bacterium violaceum; test: Agar disc diffusion antibacterial test; settings: for Inhibition %: C, (-) Chromo bacterium violaceum, (T–C)/T × 100; for zone of inhibition at 100 µM: read-out: diameter of clear zone inhibition
Escherichia coli = test: Agar disc diffusion antibacterial test; settings: for Inhibition %: A, (-) Escherichia coli, (T–C)/T × 100; for zone of inhibition at 100 µM: Escherichia coli, read-out: diameter of clear zone inhibition
Pseudomonas aeruginosa = test: Agar disc diffusion antibacterial test; settings: for Inhibition %: D, (-) Pseudomonas aeruginosa, (T–C)/T × 100; for zone of inhibition at 100 µM: Pseudomonas aeruginosa, read-out: diameter of clear zone inhibition
[2] = system: Salmonella enteric serovar typhi; test: Agar disc diffusion antibacterial test; type: cell-based; settings: B; for zone of inhibition at 100 µM: 20 µL of 100 µM on 6 mm disc, Control (DMSO) = 6 mm, read-out: diameter of clear zone inhibition; for Inhibition %: (T–C)/T × 100
Bacillus cereus = test: Agar disc diffusion antibacterial test; settings: for zone of inhibition at 100 µM: Bacillus cereus, read-out: diameter of clear zone inhibition; for Inhibition %: G, (+) Bacillus cereus, (T–C)/T × 100
Shigella flexneri = test: Agar disc diffusion antibacterial test; settings: for Inhibition %: E, (-) Shigella flexneri, (T–C)/T × 100; for zone of inhibition at 100 µM: Shigella flexneri, read-out: diameter of clear zone inhibition
Staphylococcus Aureus = test: Agar disc diffusion antibacterial test; settings: for Inhibition %: F, (+) Staphylococcus Aureus, (T–C)/T × 100; for zone of inhibition at 100 µM: Staphylococcus aureus, read-out: diameter of clear zone inhibition
[3] = Hydroxyl radical scavenging assay; type: biochemical; settings: 230 nm
[4] = Nitric oxide scavenging assay; type: biochemical; settings: 546 nm
[5] = DPPH radical scavenging assay; type: biochemical; settings: 517 nm
[6] = Superoxide scavenging assay; type: biochemical; settings: 590 nm
[7] = system: HepG2 Liver cancer cell line; test: MTT cell viability assay; type: cell-based; settings: 72 h exposure, at least three independent experiments
[8] = system: NHDF Normal human dermal fibroblasts cell line; test: MTT cell viability assay; type: cell-based; settings: 72 h exposure
[9] = system: MCF-7 Breast cancer cell line; test: MTT cell viability assay; type: cell-based; settings: 72 h exposure, at least three independent experiments
[10] = system: A549 Human lung cancer cell line; test: MTT cell viability assay; type: cell-based; settings: 72 h exposure, at least three independent experiments
CT-DNA = test: DNA binding affinity by viscometric (hydrodynamic) titration; design: species or system calf; settings: for Relative Specific Viscosity (η/η0)^1/3: DNA 100 µM; for Slope of (η/η0)^1/3 vs [Compound]/[DNA]: linear plot, R 0.2–1.0
Experimental: The hydrodynamic titrations were carried out for all substances along with ethidium bromide (control) at 20, 40, 60, 80, 100 µM concentrations. In the Ostwald viscometer, these substances were also separately treated with the deoxyribonucleic acid solution (100 µM).
2.2.4. Viscometry-based titration for investigation of DNA binding
The Viscometry-based titration measurements were further supportive and delivered data about the binding modes between test compound and DNA base pairs. Nevertheless, it does not deliver definite confirmation for the exact mode of interactions. The experiment performed for all test compounds and ethidium bromide (control) at various concentrations 20, 40, 60, 80, 100 µM and each compound mixed with the CT-DNA solution (100 µM) in the Ostwald viscometer. With an accuracy of 0.01 seconds, a digital stopwatch was used to measure the average flow time. Due to the enhancement of the DNA's overall contour length during the separation of base pairs at intercalation sites, the classical intercalative mode […]
Generally, the compounds may result in less positive/negative or no viscosity change if they bind with DNA base pairs via […]
major or minor grooves [ 26]. […]
compounds via intercalation.

Candida albicans = test: Agar disc diffusion antifungal test; settings: for Inhibition %: I, (T–C)/T × 100; for zone of inhibition at 100 µM: read-out: diameter of clear zone inhibition
Aspergillus niger = test: Agar disc diffusion antifungal test; settings: for Inhibition %: H, (T–C)/T × 100; for zone of inhibition at 100 µM: read-out: diameter of clear zone inhibition
Mucor indicus = test: Agar disc diffusion antifungal test; settings: for Inhibition %: J, (T–C)/T × 100; for zone of inhibition at 100 µM: read-out: diameter of clear zone inhibition

Question: Which results are given for [H]/N=C(/N)N[C@H]1[C@H](O)[C@@H](O)[C@H](O[C@@H]2O[C@@H](C)[C@](O)(C=O)[C@H]2O[C@@H]2O[C@@H](CO)[C@H](O)[C@@H](O)[C@@H]2NC)[C@@H](N/C(N)=N\[H])[C@@H]1O [Streptomycin, reference compound]?
Answer: Inhibition % [1]: 75%; zone of inhibition at 100 µM [1]: 24 mm; Inhibition % (Escherichia coli): 75%; zone of inhibition at 100 µM (Escherichia coli): 24 mm; Inhibition % (Pseudomonas aeruginosa): 71%; zone of inhibition at 100 µM (Pseudomonas aeruginosa): 21 mm; zone of inhibition at 100 µM [2]: 26 mm; Inhibition % [2]: 77%; zone of inhibition at 100 µM (Bacillus cereus): 21 mm; Inhibition % (Bacillus cereus): 71%; Inhibition % (Shigella flexneri): 76%; zone of inhibition at 100 µM (Shigella flexneri): 25 mm; Inhibition % (Staphylococcus Aureus): 71%; zone of inhibition at 100 µM (Staphylococcus Aureus): 21 mm

Question: For O=C1O[C@H]([C@@H](O)CO)C(O)=C1O [Ascorbic acid, ascorbic acid, reference compound], which “% Inhibition, hydroxyl radical” value ([3]; 40 µM) is on record?
Answer: 20.73%

Question: What about the “% Inhibition, hydroxyl radical” value ([3]; 80 µM) of the same compound?
Answer: 36.46%

Question: And the “% Inhibition, hydroxyl radical” value ([3]; 120 µM)?
Answer: 47.87%

Question: And the “% Inhibition, hydroxyl radical” value ([3]; 160 µM)?
Answer: 59.65%

Question: And the “% Inhibition, hydroxyl radical” value ([3]; 200 µM)?
Answer: 65.64%

Question: And the “% Inhibition, hydroxyl radical” value ([3]; 240 µM)?
Answer: 78.83%

Question: What about the IC50 ([3]; read-out: IC50, hydroxyl radical inhibition) of the same compound?
Answer: 160 µM

Question: And the “% Inhibition, nitric oxide” value ([4]; 40 µM)?
Answer: 28.55%

Question: What about the “% Inhibition, nitric oxide” value ([4]; 80 µM) of the same compound?
Answer: 35.75%

Question: And the “% Inhibition, nitric oxide” value ([4]; 120 µM)?
Answer: 43.65%

Question: And the “% Inhibition, nitric oxide” value ([4]; 160 µM)?
Answer: 52.68%

Question: And the “% Inhibition, nitric oxide” value ([4]; 200 µM)?
Answer: 63.72%

Question: And the “% Inhibition, nitric oxide” value ([4]; 240 µM)?
Answer: 72.73%

Question: What about the “% Inhibition, DPPH” value ([5]; 40 µM) of the same compound?
Answer: 41.63%

Question: And the “% Inhibition, DPPH” value ([5]; 80 µM)?
Answer: 53.74%

Question: And the “% Inhibition, DPPH” value ([5]; 120 µM)?
Answer: 58.95%

Question: And the “% Inhibition, DPPH” value ([5]; 160 µM)?
Answer: 70.86%

Question: And the “% Inhibition, DPPH” value ([5]; 200 µM)?
Answer: 82.75%

Question: What about the “% Inhibition, DPPH” value ([5]; 240 µM) of the same compound?
Answer: 85.65%

Question: And the IC50 [5]?
Answer: 80 µM

Question: What about the “% Inhibition, superoxide” value ([6]; 40 µM) of the same compound?
Answer: 29.64%

Question: What about the “% Inhibition, superoxide” value ([6]; 80 µM) of the same compound?
Answer: 41.72%

Question: What about the “% Inhibition, superoxide” value ([6]; 120 µM) of the same compound?
Answer: 55.63%

Question: What about the “% Inhibition, superoxide” value ([6]; 160 µM) of the same compound?
Answer: 66.75%

Question: What about the “% Inhibition, superoxide” value ([6]; 200 µM) of the same compound?
Answer: 72.55%

Question: What about the “% Inhibition, superoxide” value ([6]; 240 µM) of the same compound?
Answer: 84.85%

Question: What about the IC50 [6] of the same compound?
Answer: 120 µM

Question: With N.N.[Cl][Pt][Cl] [Cisplatin, cisplatin, reference compound] as the compound, how does the IC50 [7] read?
Answer: 22.9 ± 1.1 µM

Question: And the IC50 [8]?
Answer: 26.9 ± 1.3 µM

Question: What about the IC50 [9] of the same compound?
Answer: 20.2 ± 1 µM

Question: And the IC50 [10]?
Answer: 31.9 ± 1.6 µM

Question: For CC[n+]1c(-c2ccccc2)c2cc(N)ccc2c2ccc(N)cc21 [EB, ethidium bromide, reference compound], which “Relative Specific Viscosity (η/η0)^1/3” value (CT-DNA; R = [Complex]/[DNA] = 0.2) is on record?
Answer: 1.01

Question: And the “Relative Specific Viscosity (η/η0)^1/3” value (CT-DNA; R = [Complex]/[DNA] = 0.4)?
Answer: 1.35

Question: What about the “Relative Specific Viscosity (η/η0)^1/3” value (CT-DNA; R = [Complex]/[DNA] = 0.6) of the same compound?
Answer: 1.63

Question: What about the “Relative Specific Viscosity (η/η0)^1/3” value (CT-DNA; R = [Complex]/[DNA] = 0.8) of the same compound?
Answer: 1.82

Question: What about the “Relative Specific Viscosity (η/η0)^1/3” value (CT-DNA; R = [Complex]/[DNA] = 1.0) of the same compound?
Answer: 1.99

Question: What about the “Slope of (η/η0)^1/3 vs [Compound]/[DNA]” value (CT-DNA) of the same compound?
Answer: 1.2859

Question: And the “Slope of (η/η0)^1/3 vs [Compound]/[DNA]” value (CT-DNA; listed as (EB))?
Answer: 1.286

Question: What does the source list for C[C@@H]1[C@H](O)[C@@H](C)/C=C/C=C/C=C/C=C/C=C/C=C/C=C/[C@H](O[C@@H]2O[C@H](C)[C@@H](O)[C@H](N)[C@@H]2O)C[C@@H]2O[C@](O)(C[C@@H](O)C[C@@H](O)[C@H](O)CC[C@@H](O)C[C@@H](O)CC(=O)O[C@H]1C)C[C@H](O)[C@H]2C(=O)O [Amphotericin B, reference compound]?
Answer: Inhibition % (Candida albicans): 65%; zone of inhibition at 100 µM (Candida albicans): 17 mm; Inhibition % (Aspergillus niger): 60%; zone of inhibition at 100 µM (Aspergillus niger): 15 mm; Inhibition % (Mucor indicus): 65%; zone of inhibition at 100 µM (Mucor indicus): 17 mm

Question: What does the source list for NCC[C@H](O)C(=O)N[C@@H]1C[C@H](N)[C@@H](O[C@H]2O[C@H](CN)[C@@H](O)[C@H](O)[C@H]2O)[C@H](O)[C@H]1O[C@H]1O[C@H](CO)[C@@H](O)[C@H](N)[C@H]1O [Amikacin, reference compound]?
Answer: Inhibition % [1]: 75%; zone of inhibition at 100 µM [1]: 24 mm; Inhibition % (Escherichia coli): 73%; zone of inhibition at 100 µM (Escherichia coli): 22 mm; Inhibition % (Pseudomonas aeruginosa): 70%; zone of inhibition at 100 µM (Pseudomonas aeruginosa): 20 mm; zone of inhibition at 100 µM [2]: 22 mm; Inhibition % [2]: 73%; zone of inhibition at 100 µM (Bacillus cereus): 20 mm; Inhibition % (Bacillus cereus): 70%; Inhibition % (Shigella flexneri): 70%; zone of inhibition at 100 µM (Shigella flexneri): 20 mm; Inhibition % (Staphylococcus Aureus): 70%; zone of inhibition at 100 µM (Staphylococcus Aureus): 20 mm

Question: Which results are given for CC(=O)N1CCN(c2ccc(OCC3COC(Cn4ccnc4)(c4ccc(Cl)cc4Cl)O3)cc2)CC1 (stereo not drawn) [Ketoconazole, reference compound]?
Answer: Inhibition % (Candida albicans): 67%; zone of inhibition at 100 µM (Candida albicans): 18 mm; Inhibition % (Aspergillus niger): 63%; zone of inhibition at 100 µM (Aspergillus niger): 16 mm; Inhibition % (Mucor indicus): 67%; zone of inhibition at 100 µM (Mucor indicus): 18 mm
